We go through 2 substances from patent US20250032430A1, “USES OF RHODOQUINONE FOR THE TREATMENT OF DISEASE” (Whitehead Institute for Biomedical Research, priority 2021, published 2025).

One assay relates to SDH complex. Put plainly: Ex vivo net direction of the SDH complex in mouse tissues. To be noted: ex vivo antimycin treatment of liver, kidney, heart, skeletal muscle. The protocol: Ex vivo stable isotope tracing on tissues: Tissues were excised from mice and washed in 1×PBS. Tissues were then cut into small pieces and placed in the appropriate stable isotope tracing media. Stable isotope tracing media contained either ^13C5^15N2-glutamine (Sigma) or 13C4-aspartate (Sigma) dissolved in DMEM, 5% FBS, 1% P/S. For ex vivo tracing experiments performed on the brain, the same media was used without FBS. Tissues were incubated for the designated time at 37° C. in a normal or hypoxia tissue culture incubator. Tissues were removed from the media, washed with PBS, and flash frozen in liquid nitrogen. Samples could be stored at −80° C. until metabolites were isolated.
Isolation of metabolites from tissues: Tissues were flash frozen and powderized with a mortar and pestle in a liquid nitrogen bath. Approximately 30 mg of tissue powder was transferred into eppendorf tubes and re-suspended in 800 uL ice-cold LC-MS grade 60:40 Methanol:Water (ThermoFisher). Samples were vortexed for 10 minutes at 4° C. […] The top layer was transferred to a new tube, dried down in a speedvac, and subsequently stored at −80° C. until they were analyzed by LC-MS. […] Protein in each sample was quantified using the Pierce BCA Protein Assay Kit (Life Technologies). […]

For assay [1], the system named is 143B cells. Description: Ubiquinone and ubiquinol measurement by LC-MS in mitochondria. It counts as cell-based, human. The settings on record: antimycin-treated SDHB knockout cells versus antimycin-treated wild-type cells. The method, then: Ubiquinone and Ubiquinol measurements: Ubiquinone and Ubiquinol were isolated from mitochondria purified by differential centrifugation as described above. Extraction and mass spectrometry protocols were performed with slight modifications to a previously described protocol. Briefly, mitochondria isolated from 25 million cells or approximately 100 mg mouse tissue were resuspended in 500 μL of ethanol and vortexed for 10 minutes at 4° C. Then, 1 mL of hexane was added and the samples were vortexed for an additional 10 minutes at 4° C. Samples were centrifuged at 16,000×g for 10 minutes at 4° C., creating two layers—the top hexane layer and bottom ethanol layer. The top (hexane) fraction was moved into a new tube and dried down. Immediately prior to LC-MS, samples were resuspended in 50 μL of 80:20 ethanol:hexane and loaded into a 4° C. autosampler. 5 μL of samples were injected onto a Luna 3 μm PFP(2) 100 Å, LC Column 100×2 mm. The column oven was held at 25° C. and the autosampler tray was held at 4° C. Buffer A contained water with 0.1% formic acid and Buffer B contained acetonitrile with 0.1% formic acid. […]

For assay [2], the system named is 143B cells. Put plainly: Polar metabolite profiling (succinate level). Type of assay: cell-based, human. To be noted: 500 nM antimycin 8 hours. The method, then: Isolation of metabolites from adherent cells: To isolate metabolites, media was removed, cells were washed 2 times with ice cold 1×PBS, and wells were covered in LC-MS grade 80:20 Methanol:Water (ThermoFisher). Plates were scraped on dry ice and lysates were collected into eppendorf tubes. Lysates were vortexed for 10 minutes at 4° C. and centrifuged at 16,000×g for 10 minutes at 4° C. Supernatants were immediately dried down in a Refrigerated CentriVap Benchtop Vacuum Concentrator connected to a CentriVap-105 Cold Trap (Labconco). Dried pellets were stored at −80° C. until they were run on LC-MS.
Liquid Chromatography and Mass Spectrometry (polar): A QExactive bench top orbitrap mass spectrometer equipped with an Ion Max source and a HESI II probe coupled to a Dionex UltiMate 3000 HPLC system (Thermo Fisher Scientific) was used to perform all LC-MS experiments. The instrument underwent mass calibration using the standard calibration mixture every 7 days. 2 μL of re-suspended polar metabolite samples were injected onto a SeQuant ZIC-pHILIC 5 μm 150×2.1 mm analytical column equipped with a 2.1×20 mm guard column (MilliporeSigma). The column oven was held at 25° C. and the autosampler tray was held at 4° C. Buffer A was comprised of 20 mM ammonium carbonate, 0.1% ammonium hydroxide. Buffer B was comprised of 100% acetonitrile. […]

In assay [3] the test system is 143B cells. Description: 14C-palmitate degradation radioactivity assay (fatty acid oxidation). Type of assay: cell-based, human. To be noted: WT (UQ-containing) versus RquA (RQ-containing) 143B cells. From the text:
Radioactivity assay to monitor 14C-palmitate degradation in WT (UQ-containing) and RquA (RQ-containing) 143B cells.

The next assay concerns mammalian cells. Put plainly: Resistance of cells to hypoxia. Type of assay: cell-based.

For antimycin, in the assay with SDH complex, the “net-reversal of the SDH complex” value is “only the liver and kidney maintained net-reversal”. Further, the “levels of UQH2 and ratio of UQH2:UQ” value in the assay on 143B cells [1] is listed as “greater”. In addition, the succinate level result in the assay with 143B cells [2] is given as “increase”.
On to rhodoquinone, for which the “fatty acid oxidation (14C-palmitate degradation)” value in the assay with 143B cells [3] is on record as “drives lower fatty acid oxidation”. The resistance to hypoxia result with mammalian cells is listed as “renders mammalian cells resistant to hypoxia”.
